Assay results as given in US11285142B2, “Compositions and methods for identifying and treating dystonia disorders” (DUKE UNIVERSITY, priority 2015, dated 2022).

Key:
[1] = tested on: delta-E Torsin1a localization in Flp-In T-REx 293 cells expressing EGFP-delta-E Torsin1a; test: delta-E Torsin1a mis-localization assay (high-content imaging, % cells with EGFP puncta); type: cell-based, human
[2] = Cytotoxicity (cell count, cellular morphology) in the Torsin1a assay cell line; type: cell-based, human; conditions: human
[3] = tested on: Flp-In T-REx 293 cells expressing delta-E Torsin1a; test: as above; type: cell-based, human
luciferase secretion = test: C.Luc. Secretion Assay (luciferase secretion, secretory deficits); type: cell-based
Protocol: We tested each shRNA for its ability to rescue a previously described defect in luciferase secretion. Chen, P. et al. (2010) Hum. Mol. Genet. 19, 3502-15; Cao, S. et al. (2010) Dis. Model. Mech. 3, 386-96; Barrows, N. J., et al., (2010)J. Biomol. Screen. 15, 735-47.) DYT1 patient data were obtained from 4 independent patient-derived lines and WT data (black bar) from 3 normal healthy control lines. Each line was tested in 5 independent experiments that included 4 technical replicates each (with the exception of SCD data from 3 independent experiments).
(Cao, S. et al. (2010) Dis. Model. Mech. 3, 386-96.) Subsequent testing of additional HIV protease inhibitors supported the activity of this class of compounds and generated favorable structure-activity relationship (SAR) data from which to design improved compounds (Tables 5 and 6). The results with a subset of compounds were also observed in a Luciferase secretion assay (Tables 5 and 6).

CreP = test: Western blot of CreP in EGFP-delta-E Torsin1a assay cell line; type: cell-based, human; conditions: EGFP-ΔE Torsin1a cells, increasing concentration
Protocol: (§1) Cells were harvested in RIPA buffer [150 mM NaCl/50 mM NaH2PO4/2 mM EDTA/l % Triton X-100/0.5% SDS/0.5% deoxycholic acid/50 mM NaF/10 mM Na4P2O7/1 mM Na3VO4/1× phosphatase inhibitor cocktail (Sigma #P5726)/1× cOmplete Mini EDTA-free protease inhibitor cocktail (Roche #04693159001)]. Total protein concentrations were assessed by BCA assay (Thermo Fisher Scientific #23225). Proteins were resolved on 4-15% TGX gels (Bio-Rad #5671085), transferred to nitrocelulose membrane, blocked in TBS-T+5% non-fat dry milk, and probed as indicated. (Primary antibodies employed in the examples of the disclosure are presented in Table 4.) ATF4 expression was normalized to […] expression. N=3 independent control cells lines and 4 independent DYT1 cell lines, 3 replicates each.
(§2) Western blot analyses were conducted to determine the effect of Lopinavir on ATF4, CreP, pEIF2-alpha, and β-actin abundance in EGFP-ΔE Torsin1a expression assay cell lines. […] This down regulation of CreP is in keeping with the HIV protease inhibitor mediated CreP regulation. (See De Gassart et al. PNAS 2015.)

EIF2-alpha = test: Western blot of phosphorylated eIF2-alpha in EGFP-delta-E Torsin1a assay cell line; type: cell-based, human; conditions: EGFP-ΔE Torsin1a cells, dose dependent
Protocol: as §1, §2

ATF4 = test: Western blot of ATF4 in EGFP-delta-E Torsin1a assay cell line; type: cell-based, human; conditions: EGFP-ΔE Torsin1a cells, dose dependent
Protocol: as §1, §2

Compound: Cc1cccc(C)c1OCC(=O)N[C@@H](Cc1ccccc1)[C@@H](O)C[C@H](Cc1ccccc1)NC(=O)[C@H](C(C)C)N1CCCNC1=O [Lopinavir, lopinavir]
- EC50 ([1]; Homo sapiens, Flp-In-T-REx-293, Table 5, read-out: ΔE TorsinA Mislocalization Assay Localization EC50): 4.69 µM
- Emax ([1]; Homo sapiens, Flp-In-T-REx-293, Table 5, read-out: ΔE TorsinA Mislocalization Assay Localization Max Efficacy): 70%
- AC50 ([1]; Homo sapiens, Flp-In-T-REx-293, Table 6, AC = Active Concentration, read-out: % pathology AC50): 4.69 µM
- % pathology Max Resp ([1]; Table 6, normalized scale, WT-TorsinA line 0%, DYT1 mutant line 100% pathology): −89.03%
- % pathology Efficacy ([1]; Table 6, normalized scale, −100% = WT TorsinA phenotype, 0% = Mutant TorsinA phenotype): −69.97%
- effect on delta-E Torsin1a localization (in words) ([1]; delta-E cell line, dose response): corrected TorsinA localization in a dose-dependent fashion
- EC50 at 48 h ([2]; Flp-In T-REx 293 cells inducibly expressing delta-E Torsin1a, Table 5, read-out: ΔE TorsinA Mislocalization Assay Cytotoxicity EC50): 37.2 µM
- AC50 ([2]; Table 6, read-out: Cytotox AC50): 37.2 µM
- Cytotox CC-v2 (dose response Curve Class) ([3]; Table 6): −3
- Cytotox Efficacy ([3]; Table 6): −69.87
- Cytotox Max Resp ([3]; Table 6): −55.19
- toxicity (cell count, cellular morphology; in words) ([3]; at effective concentrations): no cellular toxicity observed at effective doses
- EC50 (luciferase secretion; Table 5): 0.98 µM
- Emax (luciferase secretion; Table 5, read-out: C.Luc. Secretion Assay Secretion Max Efficacy): 177%
- correction of secretory deficits (in words) (luciferase secretion; orthogonal assays): corrected secretory deficits
- CreP abundance (steady state levels) (CreP): down-regulation of steady state levels
- CreP abundance (steady state levels) (CreP; listed as lopinavir): decreases CReP abundance
- phosphorylation of EIF2-alpha (EIF2-alpha): increases phosphorylation of EIF2-alpha
- ATF4 abundance (ATF4): increases phosphorylation of EIF2-alpha and ATF4 abundance
